The results in this text go back to the NIST ThermoML archive (doi:10.1016/j.jct.2013.11.004).

± gives the expanded uncertainty stated by the source.

The conditions of this data set: DTA.

For the compound `CCC(=O)[O-].CCn1cc[n+](C)c1` [1-ethyl-3-methylimidazolium propionate], the Glass transition temperature was -83.17 ± 4 °C.
For `CCC(=O)[O-].CCCn1cc[n+](C)c1` [1-propyl-3-methylimidazolium propionate], the Glass transition temperature was -82.92 ± 4 °C.
